# Data: patent publication US8877748B2, “Heterocyclic fused anthraquinone derivatives, manufacturing method and pharmaceutical composition using thereof” (National Defense Medical Center, priority 2012, dated 2014)
# Tests used:
# SNB-19 = experiment: NCI one-dose screening, CNS cancer SNB-19; format: cell-based, human; details: SNB-19, 10 μM
# SK-MEL-5 = experiment: NCI one-dose screening, melanoma SK-MEL-5; format: cell-based, human; details: SK-MEL-5, 10 μM
# human tumor cell lines = experiment: NCI one-dose screening, mean, delta and range of growth percent over all cell lines tested; format: cell-based
# KM12 = experiment: NCI one-dose screening, colon cancer KM12; format: cell-based, human; details: KM12, 10 μM
# DU145 = experiment: NCI one-dose screening, prostate cancer DU145; format: cell-based, human; details: DU145, 10 μM
# PC-3 = experiment: NCI one-dose screening, prostate cancer PC-3; format: cell-based, human; details: PC-3, 10 μM
# MDA-MB-468 = experiment: NCI one-dose screening, breast cancer MDA-MB-468; format: cell-based, human; details: MDA-MB-468, 10 μM
# MCF7 = experiment: NCI one-dose screening, breast cancer MCF7; format: cell-based, human; details: MCF7, 10 μM
# SK-MEL-2 = experiment: NCI one-dose screening, melanoma SK-MEL-2; format: cell-based, human; details: SK-MEL-2, 10 μM
# CCRF-CEM = experiment: NCI screening platform one-dose single concentration screening, leukemia CCRF-CEM; format: cell-based, human; details: CCRF-CEM
# OVCAR-5 = experiment: NCI one-dose screening, ovarian cancer OVCAR-5; format: cell-based, human; details: OVCAR-5, 10 μM
# NCl/ADR-RES = experiment: NCI one-dose screening, breast cancer NCl/ADR-RES; format: cell-based, human; details: Ovarian cancer, NCI/ADR-RES
# UACC-257 = experiment: NCI one-dose screening, melanoma UACC-257; format: cell-based, human; details: UACC-257, 10 μM
# OVCAR-8 = experiment: NCI one-dose screening, ovarian cancer OVCAR-8; format: cell-based, human; details: OVCAR-8, 10 μM
# HCC-2998 = experiment: NCI one-dose screening, colon cancer HCC-2998; format: cell-based, human; details: HCC-2998, 10 μM
# HS 578-T = experiment: NCI one-dose screening, breast cancer HS 578-T; format: cell-based, human; details: Breast cancer, HS 578T, 10 μM
# OVCAR-4 = experiment: NCI one-dose screening, ovarian cancer OVCAR-4; format: cell-based, human; details: OVCAR-4, 10 μM
# LOX IMVI = experiment: NCI one-dose screening, melanoma LOX IMVI; format: cell-based, human; details: LOX IMVI
# NCI-H23 = experiment: NCI one-dose screening, non-small cell lung cancer NCI-H23; format: cell-based, human; details: NCI-H23, 10 μM
# NCI-H226 = experiment: NCI one-dose screening, non-small cell lung cancer NCI-H226; format: cell-based, human; details: NCI-H226, 10 μM
# NCI-H522 = experiment: NCI one-dose screening, non-small cell lung cancer NCI-H522; format: cell-based, human; details: NCI-H522, 10 μM
# K562cell line = experiment: NCI one-dose screening, leukemia K562; format: cell-based, human; details: K562, 10 μM
# OVCAR-3 = experiment: NCI one-dose screening, ovarian cancer OVCAR-3; format: cell-based, human; details: OVCAR-3, 10 μM
# UACC-62 = experiment: NCI one-dose screening, melanoma UACC-62; format: cell-based, human; details: UACC-62, 10 μM
# EKVX = experiment: NCI one-dose screening, non-small cell lung cancer EKVX; format: cell-based, human; details: EKVX
# SN12C = experiment: NCI one-dose screening, renal cancer SN12C; format: cell-based, human; details: SN12C
# IGROV1 = experiment: NCI one-dose screening, ovarian cancer IGROV1; format: cell-based, human; details: IGROV1, 10 μM
# TK-10 = experiment: NCI one-dose screening, renal cancer TK-10; format: cell-based, human; details: TK-10, 10 μM
# SF-539 = experiment: NCI one-dose screening, CNS cancer SF-539; format: cell-based, human; details: SF-539, 10 μM
# CAKI-1 = experiment: NCI one-dose screening, renal cancer CAKI-1; format: cell-based, human; details: CAKI-1, 10 μM
# BT-549 = experiment: NCI one-dose screening, breast cancer BT-549; format: cell-based, human; details: BT-549, 10 μM
# COLO 205 = experiment: NCI one-dose screening, colon cancer COLO 205; format: cell-based, human; details: COLO 205, 10 μM
# NCI-H460 = experiment: NCI one-dose screening, non-small cell lung cancer NCI-H460; format: cell-based, human; details: NCI-H460, 10 μM
# HT29 = experiment: NCI one-dose screening, colon cancer HT29; format: cell-based, human; details: HT29, 10 μM
# U251 = experiment: NCI one-dose screening, CNS cancer U251; format: cell-based, human; details: U251, 10 μM
# M14 = experiment: NCI one-dose screening, melanoma M14; format: cell-based, human; details: M14, 10 μM
# ACHN = experiment: NCI one-dose screening, renal cancer ACHN; format: cell-based, human; details: ACHN
# [1] = system: PC-3 prostate cancer cell line; experiment: SRB assay cell viability, PC-3 prostate cancer cell line; format: cell-based, human; details: Homo sapiens, PC-3 prostate cancer cell line, Table II prints no unit, μM printed, read-out: SRB assay: 50% inhibition of cancer cell proliferation of sample concentration (IC50) of PC-3 prostate cancer cell line
# MALME-3M = experiment: NCI one-dose screening, melanoma MALME-3M; format: cell-based, human; details: MALME-3M
# RXF, 393 = experiment: NCI one-dose screening, renal cancer RXF, 393; format: cell-based, human; details: RXF 393, 10 μM
# PRMI-8226 cell line = experiment: NCI one-dose screening, leukemia PRMI-8226; format: cell-based, human; details: RPMI-8226, 10 μM
# MDA-MB-231/ATCC = experiment: NCI one-dose screening, breast cancer MDA-MB-231/ATCC; format: cell-based, human; details: MDA-MB-231/ATCC
# 786-O = experiment: NCI one-dose screening, renal cancer 786-O; format: cell-based, human; details: 786-0, 10 μM
smiles,measurement,setting,value
"Cc1ccc(Nc2cc3c(c4nsnc24)C(=O)c2ccccc2C3=O)cc1 [C64, 4-(p-tolylamino)anthra[2,1-c][1,2,5] thiadiazol-6,11-dione]",Growth Percent (10 μM),SNB-19,82.28%
same,Growth Percent (10 μM),SK-MEL-5,24.13%
same,"Growth Percent (10 μM), Delta",human tumor cell lines; Delta over all cell lines tested,48.49%
same,"Growth Percent (10 μM), Mean",human tumor cell lines; Mean over all cell lines tested,61.35%
same,"Growth Percent (10 μM), Range",human tumor cell lines; Range over all cell lines tested,96.99%
same,Growth Percent (10 μM),KM12,64.56%
same,Growth Percent (10 μM),DU145,68.26%
same,Growth Percent (10 μM),PC-3,45.73%
same,Growth Percent (10 μM),MDA-MB-468,58.18%
same,Growth Percent (10 μM),MCF7,46.59%
same,Growth Percent (10 μM),SK-MEL-2,93.85%
same,Growth Percent (10 μM),CCRF-CEM,59.59%
same,Growth Percent (10 μM),OVCAR-5,109.85%
same,Growth Percent (10 μM),NCl/ADR-RES,61.34%
same,Growth Percent (10 μM),UACC-257,71.17%
same,Growth Percent (10 μM),OVCAR-8,53.96%
same,Growth Percent (10 μM),HCC-2998,95.82%
same,Growth Percent (10 μM),HS 578-T,78.75%
same,Growth Percent (10 μM),OVCAR-4,31.44%
same,Growth Percent (10 μM),LOX IMVI,27.05%
same,Growth Percent (10 μM),NCI-H23,45.87%
same,Growth Percent (10 μM),NCI-H226,66.61%
same,Growth Percent (10 μM),NCI-H522,53.06%
same,Growth Percent (10 μM),K562cell line,33.45%
same,Growth Percent (10 μM),OVCAR-3,57.92%
same,Growth Percent (10 μM),UACC-62,67.41%
same,Growth Percent (10 μM),EKVX,82.17%
same,Growth Percent (10 μM),SN12C,74.58%
same,Growth Percent (10 μM),IGROV1,49.40%
same,Growth Percent (10 μM),TK-10,95.15%
same,Growth Percent (10 μM),SF-539,70.48%
same,Growth Percent (10 μM),CAKI-1,50.33%
same,Growth Percent (10 μM),BT-549,76.36%
same,Growth Percent (10 μM),COLO 205,100.68%
same,Growth Percent (10 μM),NCI-H460,21.80%
same,Growth Percent (10 μM),HT29,96.29%
same,Growth Percent (10 μM),U251,34.17%
same,Growth Percent (10 μM),M14,76.72%
same,Growth Percent (10 μM),ACHN,57.60%
same,IC50,[1],0.84 µM
same,Growth Percent (10 μM),MALME-3M,78.41%
same,Growth Percent (10 μM),"RXF, 393",71.05%
same,Growth Percent (10 μM),PRMI-8226 cell line,21.59%
same,Growth Percent (10 μM),MDA-MB-231/ATCC,73.83%
same,Growth Percent (10 μM),786-O,74.18%
